Laboratory results taken from patent US7781436B2 (Hoffmann-La Roche Inc., priority 2005, dated 2010).

Target: T1, human V1a receptor (Homo sapiens, UniProt P37288)
T1 construct: expressed in transfected cells; host or cells: HEK293 cells, transiently transfected; membranes prepared
Test: human V1a receptor binding (3H-Vasopressin SPA, membranes of transfected HEK293 cells)
Settings: not given
Method: The human V1a receptor was cloned by RT-PCR from total human liver RNA. The coding sequence was subcloned in an expression vector after sequencing to confirm the identity of the amplified sequence. […] Cell membranes were prepared from HEK293 cells transiently transfected with the expression vector and grown in 20 liter fermenters with the following protocol.
50 g of cells are resuspended in 30 ml freshly prepared ice cold Lysis buffer (50 mM HEPES, 1 mM EDTA, 10 mM MgCl2 adjusted to pH=7.4+ complete cocktail of protease inhibitor (Roche Diagnostics)). Homogenized with Polytron for 1 min and sonicated on ice for 2×2 minutes at 80% intensity (Vibracell sonicator). The preparation is centrifuged 20 min at 500 g at 4° C., the pellet is discarded and the supernatant centrifuged 1 hour at 43,000 g at 4° C. (19'000 rpm). The pellet is resuspended in 12.5 ml Lysis buffer+12.5 ml Sucrose 20% and homogenized using a Polytron for 1-2 min. The protein concentration is determined by the Bradford method, and aliquots are stored at −80° C. until use. For binding studies 60 mg Yttrium silicate SPA beads (Amersham) are mixed with an aliquot of membrane in binding buffer (50 mM Tris, 120 mM NaCl, 5 mM KCl, 2 mM CaCl2, 10 mM MgCl2) for 15 minutes with mixing. 50 ul of bead/membrane mixture is then added to each well of a 96 well plate, followed by 50 ul of 4 nM 3H-Vasopressin (American Radiolabeled Chemicals). For total binding measurement 100 ul of binding buffer are added to the respective wells, for non-specific binding 100 ul of […] cold vasopressin and for compound testing 100 ul of a serial dilution of each compound in 2% DMSO. The plate is incubated 1 h at room temperature, centrifuged 1 min at 1000 g and counted on a Packard Top-Count. Non-specific binding counts are subtracted from each well, and data is normalized to the maximum specific binding set at 100%. To calculate an IC 50 the curve is fitted using a non-linear regression model (XLfit) and the Ki is calculated using the Cheng-Prussoff equation.

T1 sequence (P37288 whole entry): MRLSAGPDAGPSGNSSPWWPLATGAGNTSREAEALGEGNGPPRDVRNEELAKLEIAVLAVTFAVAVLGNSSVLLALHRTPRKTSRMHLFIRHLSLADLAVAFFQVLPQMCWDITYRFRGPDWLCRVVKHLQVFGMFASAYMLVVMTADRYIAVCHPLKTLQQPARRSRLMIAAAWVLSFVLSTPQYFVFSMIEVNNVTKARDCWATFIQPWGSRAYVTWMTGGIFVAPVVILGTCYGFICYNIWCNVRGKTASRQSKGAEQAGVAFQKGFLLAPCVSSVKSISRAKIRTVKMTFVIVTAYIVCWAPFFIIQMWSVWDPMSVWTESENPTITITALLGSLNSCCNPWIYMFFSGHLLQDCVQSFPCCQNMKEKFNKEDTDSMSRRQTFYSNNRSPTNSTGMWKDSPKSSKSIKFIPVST

`CC(=O)NCCn1cc(C(=O)N2CCN(c3ccccc3F)CC2)c2ccc(Cl)cc21` [Example 217, N-(2-{6-Chloro-3-[4-(2-fluoro-phenyl)-piperazine-1-carbonyl]-indol-1-yl}-ethyl)-acetamide] and `CN(CCn1cc(C(=O)N2CCN(c3ccccc3F)CC2)c2ccc(Cl)cc21)S(C)(=O)=O` [Example 220] are within 1.5-fold of each other in Ki: 21 nM for the first, 17 nM for the second.

`COc1cccc(OC)c1C1CCN(C(=O)c2cn(CC(N)=O)c3cc(Cl)ccc23)CC1` [Example 81, 2-{6-Chloro-3-[4-(2,6-dimethoxy-phenyl)-piperidine-1-carbonyl]-indol-1-yl}-acetamide] and `CN(C)C(=O)Cn1cc(C(=O)N2CCC(c3ccccc3OC(F)(F)F)CC2)c2ccc(Cl)cc21` [Example 95, 2-{6-Chloro-3-[4-(2-trifluoromethoxy-phenyl)-piperidine-1-carbonyl]-indol-1-yl}-N,N-dimethyl-acetamide] are the same in Ki: 13 nM for the first, 13 nM for the second.

`O=C(c1cn(C[C@@H]2CCCN2)c2cc(Cl)ccc12)N1CCN(c2ccccc2F)CC1` [Example 200, (6-Chloro-1-(S)-1-pyrrolidin-2-ylmethyl-1H-indol-3-yl)-[4-(2-fluoro-phenyl)-piperazin-1-yl]-methanone] and `CNC(=O)Cn1cc(C(=O)N2CCN(c3nccc4sccc34)CC2)c2ccc(Cl)cc21` [Example 224, 2-[6-Chloro-3-(4-thieno[3,2-c]pyridin-4-yl-piperazine-1-carbonyl)-indol-1-yl]-N-methyl-acetamide] are within 1.5-fold of each other in Ki: 21 nM for the first, 27 nM for the second.

Compared with `COc1ccccc1C1(C#N)CCN(C(=O)c2cn(CC(=O)N(C)C)c3cc(Cl)ccc23)CC1` [Example 60, 2-{6-Chloro-3-[4-cyano-4-(2-methoxy-phenyl)-piperidine-1-carbonyl]-indol-1-yl}-N,N-dimethyl-acetamide], `CN(C)CCn1cc(C(=O)N2CCC(c3cccc4c3OCC4)CC2)c2ccc(Cl)cc21` [Example 87, [6-Chloro-1-(2-dimethylamino-ethyl)-1H-indol-3-yl]-[4-(2,3-dihydro-benzofuran-7-yl)-piperidin-1-yl]-methanone] is 2-fold lower in Ki: 8 nM for the first, 4 nM for the second.

Compared with `CN1CCN(C(=O)Cn2cc(C(=O)N3CCC(c4cccc5c4OCC5)CC3)c3ccc(Cl)cc32)CC1` [Example 71, 2-{6-Chloro-3-[4-(2,3-dihydro-benzofuran-7-yl)-piperidine-1-carbonyl]-indol-1-yl}-1-(4-methyl-piperazin-1-yl)-ethanone], `Cc1c(C(=O)N2CCC(c3ccccc3)CC2)c2ccccc2n1Cc1ccccc1` [Example 24] is 2-fold higher in Ki: 5 nM for the first, 10 nM for the second.

`COc1ccccc1C1=CCN(C(=O)c2c(C)n(Cc3ccccc3)c3ccccc23)CC1` [Example 3] was tested, and the Ki was 14 nM.

Same assay, conditions: displacement of 4 nM 3H-Vasopressin, HEK293 cell membranes, Ki by Cheng-Prussoff from IC50; read-out: Ki

`CN(C)C(=O)Cn1cc(C(=O)N2CCC(c3ccccc3C(F)(F)F)CC2)c2ccc(Cl)cc21` [Example 102, 2-{6-Chloro-3-[4-(2-trifluoromethyl-phenyl)-piperidine-1-carbonyl]-indol-1-yl}-N,N-dimethyl-acetamide] and `CN1CCN(C(=O)Cn2cc(C(=O)N3CCC(c4ccccc4C(F)(F)F)CC3)c3ccc(Cl)cc32)CC1` [Example 97, 2-{6-Chloro-3-[4-(2-trifluoromethyl-phenyl)-piperidine-1-carbonyl]-indol-1-yl}-1-(4-methyl-piperazin-1-yl)-ethanone] are within 1.5-fold of each other in Ki: 7 nM for the first, 6 nM for the second.

`COc1cccc(OC)c1C1CCN(C(=O)c2cn(Cc3cccnc3)c3cc(Cl)ccc23)CC1` [Example 46, (6-Chloro-1-pyridin-3-ylmethyl-1H-indol-3-yl)-[4-(2,6-dimethoxy-phenyl)-piperidin-1-yl]-methanone] and `COc1cccc(OC)c1C1CCN(C(=O)c2cn(Cc3ccncc3)c3cc(Cl)ccc23)CC1` [Example 45, (6-Chloro-1-pyridin-4-ylmethyl-1H-indol-3-yl)-[4-(2,6-dimethoxy-phenyl)-piperidin-1-yl]-methanone] are the same in Ki: 7 nM for the first, 7 nM for the second.

Going from `COc1cccc(OC)c1C1CCN(C(=O)c2cn(CC(=O)c3ccccn3)c3cc(Cl)ccc23)CC1` [Example 44, 2-{6-Chloro-3-[4-(2,6-dimethoxy-phenyl)-piperidine-1-carbonyl]-indol-1-yl}-1-pyridin-2-yl-ethanone] to `COc1cccc(OC)c1C1CCN(C(=O)c2cn(CC(=O)NCCN)c3cc(Cl)ccc23)CC1` [Example 84, N-(2-Amino-ethyl)-2-{6-chloro-3-[4-(2,6-dimethoxy-phenyl)-piperidine-1-carbonyl]-indol-1-yl}-acetamide], the Ki rises from 3 nM to 11 nM (3.7-fold). The first binds more tightly here.

Compared with `COc1ccccc1N1CCN(C(=O)c2cn(CCN(C)C)c3cc(Cl)ccc23)CC1` [Example 163, [6-Chloro-1-(2-dimethylamino-ethyl)-1H-indol-3-yl]-[4-(2-methoxy-phenyl)-piperazin-1-yl]-methanone], `COc1ccccc1C1CCN(C(=O)c2cn(CCN(C)C)c3cc(Cl)ccc23)CC1` [Example 108, [6-Chloro-1-(2-dimethylamino-ethyl)-1H-indol-3-yl]-[4-(2-methoxy-phenyl)-piperidin-1-yl]-methanone] is 2.8-fold lower in Ki: 22 nM for the first, 8 nM for the second.

`CN(C)CCn1cc(C(=O)N2CCC(c3ccccc3F)CC2)c2ccc(Cl)cc21` [Example 115, [6-Chloro-1-(2-dimethylamino-ethyl)-1H-indol-3-yl]-[4-(2-fluoro-phenyl)-piperidin-1-yl]-methanone] and `CNCCn1cc(C(=O)N2CCC(c3cccc4c3OCC4)CC2)c2ccc(Cl)cc21` [Example 107, [6-Chloro-1-(2-methylamino-ethyl)-1H-indol-3-yl]-[4-(2,3-dihydro-benzofuran-7-yl)-piperidin-1-yl]-methanone] are within 1.5-fold of each other in Ki: 11 nM for the first, 12 nM for the second.

`CS(=O)(=O)NCCn1cc(C(=O)N2CCN(c3ccccc3F)CC2)c2ccc(Cl)cc21` [Example 218, N-(2-{6-Chloro-3-[4-(2-fluoro-phenyl)-piperazine-1-carbonyl]-indol-1-yl}-ethyl)-methanesulfonamide] and `C[C@H](N)Cn1cc(C(=O)N2CCN(c3ccccc3F)CC2)c2ccc(Cl)cc21` [Example 198, [1-((S)-2-Amino-propyl)-6-chloro-1H-indol-3-yl]-[4-(2-fluoro-phenyl)-piperazin-1-yl]-methanone] are within 1.5-fold of each other in Ki: 16 nM for the first, 20 nM for the second.

First: CN(C)C(=O)Cn1cc(C(=O)N2CCN(c3ccccc3F)CC2)c2ccc(Cl)cc21 [Example 174, 2-{6-Chloro-3-[4-(2-fluoro-phenyl)-piperazine-1-carbonyl]-indol-1-yl}-N,N-dimethyl-acetamide]
Second: CN1CCN(C(=O)Cn2cc(C(=O)N3CCN(c4ccccc4F)CC3)c3ccc(Cl)cc32)CC1 [Example 172, 2-{6-Chloro-3-[4-(2-fluoro-phenyl)-piperazine-1-carbonyl]-indol-1-yl}-1-(4-methyl-piperazin-1-yl)-ethanone]
The Ki of the first is 3.3-fold lower: 3 nM for the first, 10 nM for the second.

`COc1ccccc1C1CCN(C(=O)c2cn(CC(=O)N(C)C)c3cc(Cl)c(Cl)cc23)CC1` [Example 80, 2-{5,6-Dichloro-3-[4-(2-methoxy-phenyl)-piperidine-1-carbonyl]-indol-1-yl}-N,N-dimethyl-acetamide] and `CC(C)Oc1ccccc1C1CCN(C(=O)c2cn(CC(=O)N3CCN(C)CC3)c3cc(Cl)ccc23)CC1` [Example 67, 2-{6-Chloro-3-[4-(2-isopropoxy-phenyl)-piperidine-1-carbonyl]-indol-1-yl}-1-(4-methyl-piperazin-1-yl)-ethanone] are within 1.5-fold of each other in Ki: 6 nM for the first, 5 nM for the second.

First: COc1cccc(OC)c1C1CCN(C(=O)c2cn(CC(=O)OC(C)(C)C)c3cc(Cl)ccc23)CC1 [Example 49, {6-Chloro-3-[4-(2,6-dimethoxy-phenyl)-piperidine-1-carbonyl]-indol-1-yl}-acetic acid tert-butyl ester]
Second: COc1cccc(OC)c1C1CCN(C(=O)c2cn(CC(=O)N3CCN(C)CC3)c3cc(Cl)ccc23)CC1 [Example 55, 2-{6-Chloro-3-[4-(2,6-dimethoxy-phenyl)-piperidine-1-carbonyl]-indol-1-yl}-1-(4-methyl-piperazin-1-yl)-ethanone]
The Ki of the first is 1.5-fold higher: 3 nM for the first, 2 nM for the second.

`CNC(=O)Cn1cc(C(=O)N2CCC(c3cccc4c3OCC4)CC2)c2ccc(Cl)cc21` [Example 76, 2-{6-Chloro-3-[4-(2,3-dihydro-benzofuran-7-yl)-piperidine-1-carbonyl]-indol-1-yl}-N-methyl-acetamide] and `CN1CCN(C(=O)Cn2cc(C(=O)N3CCC(c4ccccc4OC(F)(F)F)CC3)c3ccc(Cl)cc32)CC1` [Example 88, 2-{6-Chloro-3-[4-(2-trifluoromethoxy-phenyl)-piperidine-1-carbonyl]-indol-1-yl}-1-(4-methyl-piperazin-1-yl)-ethanone] are within 1.5-fold of each other in Ki: 8 nM for the first, 7 nM for the second.

For `COc1cccc(OC)c1C1CCN(C(=O)c2cn(CC(=O)N3CCNCC3)c3cc(Cl)ccc23)CC1` [Example 69, 2-{6-Chloro-3-[4-(2,6-dimethoxy-phenyl)-piperidine-1-carbonyl]-indol-1-yl}-1-piperazin-1-yl-ethanone], the Ki was 6 nM.
